pIC50: −log10 of the molar value. Counter-ions that a name gives are not always drawn.
Assays:
[1] = molecular target: Human TDO (hTDO)-transfected CHO-K1 cells (Homo sapiens (Human), UniProt P48775); assay: CHO-K1 cell based TDO assay; conditions: hTDO cellular assay
Method: Human TDO (hTDO)-transfected CHO-K1 cells were used to identify test compounds that inhibit TDO activity and reduce Kynurenine production. CHO-K1 cells (ATCC) were cultured in DMEM supplemented with sodium bicarbonate (2.1 g/L), HEPES (4.1 g/L), L-glutamine (2 mM), non-essential amino acid (84 mg/L) and fetal bovine serum (10%) and maintained at 95% humidity and 5% CO2 in a 37° C. incubator. The TDO gene (TDO2) (Accession number NM_005651.1) was purchased from Origene (USA) and stably expressed in CHO-Kl cells using the expression vector pcDNA4/Myc-HisB Hygro (Life Technologies, USA). TDO-expressing clones were identified based on the kynurenine production by the cells. Expanded clones were used for assay as described below. Unless otherwise stated, all materials were procured from Sigma.
hTDO transfected CHO-K1 cells (0.05 million/well) were seeded in a 96-well plate and maintained overnight in DMEM containing 10% FBS (200 μL) at 95% humidity and 5% CO2 in a 37° C. incubator. The following day, cells were washed and incubated with test compounds (typically 31 μM to 10 nM, final volume 150 μL) in Hanks Balanced Salt Solution (HBSS) containing 80 μM L-tryptophan for 2 hours. Supernatant (150 μL) from the cells was treated with 30% TCA ([…]) to precipitate proteins. Supernatants were further incubated at 65° C. for 15 min to convert N-formylkynurenine to kynurenine. KYN in the supernatant was measured by LC/MS/MS using an API4000 mass spectrometer (Applied Biosystems) coupled to a Shimadzu Prominence LC system fitted with a C18 column.
Percent inhibition of the test compounds was determined by measuring the decrease in KYN as compared to the reaction control (DMSO vehicle). IC50 values were calculated using Graph Pad Prism® 5 as described above.

[2] = molecular target: Human indoleamine 2,3-dioxygenase1 (hIDO1) (Homo sapiens (Human), UniProt P14902); assay: In-vitro IDO1 enzyme assay (conversion of L-tryptophan to KYN); type: biochemical; conditions: read-out: IC50 (IDO1) Enz
Chain of Human indoleamine 2,3-dioxygenase1 (hIDO1) (P14902 whole entry): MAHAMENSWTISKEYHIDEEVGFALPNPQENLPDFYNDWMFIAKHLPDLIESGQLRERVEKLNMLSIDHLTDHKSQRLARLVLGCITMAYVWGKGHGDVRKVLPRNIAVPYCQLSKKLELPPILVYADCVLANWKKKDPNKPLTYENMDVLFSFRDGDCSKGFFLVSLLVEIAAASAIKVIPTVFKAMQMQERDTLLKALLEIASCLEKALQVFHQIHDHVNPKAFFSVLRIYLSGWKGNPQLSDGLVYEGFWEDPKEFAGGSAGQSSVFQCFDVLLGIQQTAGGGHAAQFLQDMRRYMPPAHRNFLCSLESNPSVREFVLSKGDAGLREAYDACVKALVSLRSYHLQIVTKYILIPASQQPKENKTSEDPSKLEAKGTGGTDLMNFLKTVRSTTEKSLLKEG
From the text: Human indoleamine 2,3-dioxygenasel (hIDO1) catalyzes the oxidative cleavage of the pyrrole ring of the indole nucleus of tryptophan to yield N-formylkynurenine which can be converted to kynurenine (KYN) by deformylation. hIDO1 with an N-terminal His tag, expressed and purified from E. coli cells was procured from either Enzo LifeScienccs, NY, USA). Unless otherwise stated, all materials were procured from Sigma Aldrich, Mo., USA.
The assay monitoring the conversion of L-tryptophan to KYN was carried out as follows. hIDO1 (10 nM) was incubated with tryptophan (30 μM) in the presence of ascorbic acid (20 mM), methylene blue (10 μM) and catalase (100 μg/mL) in potassium phosphate buffer (50 mM; pH 6.5) at 37C for 30 min. The reaction was terminated with 30% trichloroacetic acid (TCA) and further incubated at 65C for 15 min to fully convert N-formylkynurenine to KYN. The reaction mixture was then centrifuged to remove sediments and the KYN in the supernatant was estimated by UV-visible absorption spectroscopy at 360 nm using a Waters HPLC system fitted with a C-18 column or by LC/MS/MS. See, Sono, 1980, J. Biol. Chem., 255:1339-1345, which is herein incorporated by reference.
Percent inhibition at each concentration of test compounds was determined by estimating the decrease in KYN with reference to the reaction control with 1% DMSO vehicle. Data were analyzed using nonlinear regression to generate IC50 values using Graph Pad Prism® 5.

Chain of Human TDO (hTDO)-transfected CHO-K1 cells (P48775 whole entry): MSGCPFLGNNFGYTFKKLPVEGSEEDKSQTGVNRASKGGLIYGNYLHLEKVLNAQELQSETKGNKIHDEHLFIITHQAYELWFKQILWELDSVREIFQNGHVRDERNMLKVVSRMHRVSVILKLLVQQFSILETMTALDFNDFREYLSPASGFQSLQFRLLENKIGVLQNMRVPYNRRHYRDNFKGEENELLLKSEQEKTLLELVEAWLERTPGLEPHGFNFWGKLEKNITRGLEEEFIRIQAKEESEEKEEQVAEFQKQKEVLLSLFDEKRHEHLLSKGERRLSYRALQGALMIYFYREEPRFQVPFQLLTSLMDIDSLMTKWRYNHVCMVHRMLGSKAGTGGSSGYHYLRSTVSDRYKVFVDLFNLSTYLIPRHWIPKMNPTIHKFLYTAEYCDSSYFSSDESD

| SMILES | pIC50 [1] | pIC50 [2] |
| --- | --- | --- |
| N#Cc1cccc(Nc2c(N)oc3cnccc23)c1F [Compound 28, 3-((2-Aminofuro[2,3-c]pyridin-3-yl)amino)-2-fluorobenzonitrile] | < 5.70 | < 6.00 |
| CCOC(=O)Nc1oc2cnccc2c1N(C(=O)OCC)c1ccc(F)c(Cl)c1 [Compound 142, Ethyl (3-chloro-4-fluorophenyl)(2-((ethoxycarbonyl)amino)furo-[2,3-c]pyridin-3-yl)carbamate] | < 5.70 | < 6.00 |
| Nc1oc2cnccc2c1Nc1ccc(I)c(Cl)c1 [Compound 18, N^3-(3-Chloro-4-iodophenyl)furo[2,3-c]pyridine-2,3-diamine] | 5.70 to 6.30 | < 6.00 |
| N#Cc1ccc(Nc2c(N)oc3cnccc23)cc1 [Compound 39, 4-((2-Aminofuro[2,3-c]pyridin-3-yl)amino)benzonitrile] | 5.70 to 6.30 | < 6.00 |
| Nc1oc2cnccc2c1Nc1ccc(Cl)cc1 [Compound 17, N^3-(4-Chlorophenyl)furo[2,3-c]pyridine-2,3-diamine] | 5.70 to 6.30 | < 6.00 |
| Nc1oc2cnccc2c1Nc1ccccc1N1CCCCC1 [Compound 24, N^3-(2-(Piperidin-1-yl)phenyl)furo[2,3-c]pyridine-2,3-diamine] | < 5.70 | < 6.00 |
| Nc1sc2ccccc2c1Oc1cccc(Cl)c1 [Compound 127, 3-(3-Chlorophenoxy)benzo[b]thiophen-2-amine hydrochloride] | < 5.70 | < 6.00 |
| CCOC(=O)Nc1oc2c(-c3ccccc3)nccc2c1Nc1ccc(F)c(Cl)c1 [Compound 162, Ethyl (3-((3-chloro-4-fluorophenyl)amino)-7-phenylfuro[2,3-c]pyridin-2-yl)carbamate] | < 5.70 | < 6.00 |
| Nc1oc2cnccc2c1Nc1ccc(Cl)cc1Cl [Compound 7, N^3-(2,4-Dichlorophenyl)furo[2,3-c]pyridine-2,3-diamine] | < 5.70 | < 6.00 |
| CCOC(=O)Nc1oc2c(Br)nccc2c1N(C(=O)OCC)c1ccc(F)c(Cl)c1 [Compound 161, Ethyl (7-bromo-2-((ethoxycarbonyl)amino)furo[2,3-c]pyridin-3-yl)(3-chloro-4-fluorophenyl)carbamate] | < 5.70 | < 6.00 |
| Nc1sc2cnccc2c1Nc1ccc(F)c(Cl)c1 [Compound 121, N^3-(3-chloro-4-fluorophenyl)thieno[2,3-c]pyridine-2,3-diamine] | < 5.70 | < 6.00 |
| CCOC(=O)Nc1oc2c(-c3cc(C)nc(C)c3)nccc2c1N(C(=O)OCC)c1ccc(F)c(Cl)c1 [Compound 165, Ethyl (3-chloro-4-fluorophenyl)(7-(2,6-dimethylpyridin-4-yl)-2-((ethoxycarbonyl)amino)furo[2,3-c]pyridin-3-yl)carbamate] | < 5.70 | < 6.00 |
| Nc1oc2cnccc2c1Nc1cccc2c1CCCC2 [Compound 63, N^3-(5,6,7,8-Tetrahydronaphthalen-1-yl)furo[2,3-c]pyridine-2,3-diamine] | < 5.70 | < 6.00 |
| N#Cc1nccc2c(Nc3ccc(F)c(Cl)c3)c(NC(=O)OCc3ccccc3)oc12 [Compound 155, Benzyl (3-((3-chloro-4-fluorophenyl)amino)-7-cyanofuro[2,3-c]pyridin-2-yl)carbamate] | 5.70 to 6.30 | < 6.00 |
| N#Cc1ccc2c(Nc3ccc(F)c(Cl)c3)c(N)sc2c1 [Compound 136, 2-Amino-3-((3-chloro-4-fluorophenyl)amino)benzo[b]thiophene-6-carbonitrile] | < 5.70 | < 6.00 |
| CCOC(=O)Nc1oc2c(-c3ccncc3)nccc2c1N(C(=O)OCC)c1ccc(F)c(C(F)(F)F)c1 [Compound 193, Ethyl (2-((ethoxycarbonyl)amino)-7-(pyridin-4-yl)furo[2,3-c]pyridin-3-yl)(4-fluoro-3-(trifluoromethyl)phenyl)carbamate] | < 5.70 | < 6.00 |
| CCOC(=O)Nc1oc2c(I)nccc2c1N(C(=O)OCC)c1ccc(F)c(Cl)c1 [Compound 156, Ethyl (3-chloro-4-fluorophenyl)(2-((ethoxycarbonyl)amino)-7-iodofuro[2,3-c]pyridin-3-yl)carbamate] | < 5.70 | < 6.00 |
| Cc1cc(-c2cccc3c(Nc4ccccc4)c(N)sc23)ccn1 [Compound 265, 7-(2-Methylpyridin-4-yl)-N^3-phenylbenzo[b]thiophene-2,3-diamine] | 5.70 to 6.30 | > 6.70 |
| Nc1oc2cnccc2c1Nc1ccc(OC(F)(F)F)cc1 [Compound 50, N^3-(4-(Trifluoromethoxy)phenyl)furo[2,3-c]pyridine-2,3-diamine] | 5.70 to 6.30 | < 6.00 |
| CCOC(=O)Nc1oc2c(C#Cc3ccc(C(N)=O)cc3)nccc2c1N(C(=O)OCC)c1ccc(F)c(Cl)c1 [Compound 160, Ethyl (7-((4-carbamoylphenyl)ethynyl)-2-((ethoxycarbonyl)amino)furo[2,3-c]pyridin-3-yl)(3-chloro-4-fluorophenyl)carbamate] | < 5.70 | < 6.00 |
| Nc1oc2cncc(Cl)c2c1Nc1ccc(F)c(Cl)c1 [Compound 57, 4-Chloro-N^3-(3-chloro-4-fluoro-phenyl)-furo[2,3-c]pyridine-2,3-diamine] | 5.70 to 6.30 | < 6.00 |
| Nc1oc2cnccc2c1Nc1ccc(F)cc1Cl [Compound 30, N^3-(2-Chloro-4-fluorophenyl)furo[2,3-c]pyridine-2,3-diamine] | 5.70 to 6.30 | < 6.00 |
| Cc1ncc(CO)c2c(Nc3ccc(F)c(Cl)c3)c(N)oc12 [Compound 56, (2-amino-3-((3-chloro-4-fluorophenyl)amino)-7-methylfuro[2,3-c]pyridin-4-yl)methanol] | < 5.70 | < 6.00 |
| CCOC(=O)Nc1oc2c(-c3cccc(C#N)c3)nccc2c1N(C(=O)OCC)c1ccc(F)c(Cl)c1 [Compound 146, Ethyl (3-chloro-4-fluorophenyl)(7-(3-cyanophenyl)-2-((ethoxycarbonyl)amino)furo[2,3-c]pyridin-3-yl)carbamate] | < 5.70 | < 6.00 |
| Nc1oc2cnccc2c1Nc1cccc(-c2ccccc2)c1 [Compound 53, N^3-([1,1′-Biphenyl]-3-yl)furo[2,3-c]pyridine-2,3-diamine] | < 5.70 | < 6.00 |
| CC(C)Oc1cccc(Nc2c(N)oc3cnccc23)c1 [Compound 37, N^3-(3-Isopropoxyphenyl)furo[2,3-c]pyridine-2,3-diamine] | < 5.70 | < 6.00 |
| CC(C)(C)c1cccc(Nc2c(N)oc3cnccc23)c1 [Compound 61, N^3-(3-(tert-Butyl)phenyl)furo[2,3-c]pyridine-2,3-diamine] | < 5.70 | < 6.00 |
| Nc1oc2cnccc2c1Nc1cccc(C2CCCCC2)c1 [Compound 88, N^3-(3-Cyclohexylphenyl)furo[2,3-c]pyridine-2,3-diamine] | 5.70 to 6.30 | < 6.00 |
| COC(=O)Nc1oc2cnccc2c1Nc1ccc(F)c(Cl)c1 [Compound 143, Methyl (3-((3-chloro-4-fluorophenyl)amino)furo[2,3-c]pyridin-2-yl)carbamate] | < 5.70 | < 6.00 |
| CCOC(=O)Nc1oc2c(-c3ccc(C(N)=O)cc3)nccc2c1Nc1ccc(F)c(Cl)c1 [Compound 157, Ethyl (7-(4-carbamoylphenyl)-3-((3-chloro-4-fluorophenyl)amino)furo[2,3-c]pyridin-2-yl)carbamate] | < 5.70 | < 6.00 |
